Values joined by “and” are separate entries in the source; they are usually repeats but may differ in a detail not shown here. Equal entries are not always repeated.
Assays:
[1] = Density measurements: partial molar volume and thermal expansivity of the solute; type: physicochemical; conditions: 50 mM phosphate buffer pH 11; for α2^0, thermal volumetric expansivity of the solute: 20, 25, 30 °C; for V2^0, partial molar volume: 25 °C
Protocol: Partial molar volumes were estimated with a density meter Anton Paar DMA 5000 M at 20, 25, and 30 °C from the concentration–density dependency for compounds dissolved in 50 mM phosphate buffer (pH 11). The experimental procedure and the data analysis method were described previously.[36],[57],[58] The partial molar volume at 25 °C (V2^0) and thermal volumetric expansivity of the solute (α2^0 = ∂V2^0/∂T) were estimated globally from two independent dilution series. The density of pure solvent (d0) was extrapolated individually for each experimental condition (i.e., temperature and buffer preparation). The change of d0 with temperature was further used to determine thermal volumetric expansivity coefficient of the bulk buffer according to the formula α0 = −(∂d0/∂T)/d0.
According to the Lum, Chandler, and Weeks (LCW) theory, the hydrophobic interactions scale for solutes of subnanometer size with the volume of the molecule rather than its surface.[61] We have recently proposed partial molar volume as the extensive parameter to describe both the solute volume and the solute-induced reorganization of the solvation shell.[36],[57],[58],[62],[63] By analyzing density data at three temperatures (20, 25, and 30 °C), we could estimate the partial molar volume of the ligand (V2^0) and the bulk solvent density (d0(T)). We could further separate the thermal expansivity coefficient of the bulk solvent (α0) and the apparent expansivity of the solute (α2^0). The latter parameter is comprised mainly of the thermal expansion effect of the hydration shell. The values of α0 fell within the narrow range of (26.9 ± 1.3) × 10^–5 K^–1, which is close to the literature data for water (25.72 × 10^–5 K^–1 at 25 °C).[64] […] The solute thermal expansivity (α2^0), together with the change of isobaric heat capacity upon ligand binding (ΔCp,bind), has already been associated with the properties of the solvation layer.[65],[66] Importantly, α2^0 is proportional to the partial molar volume V2^0 (Figure 3D). So, V2^0 may be another descriptor of hydrophobic interactions. Consequently, the volume-normalized solute expansivity coefficient (α = α2^0/V2^0) is almost the same for all studied bromobenzotriazoles (232 ± 22 × 10^–5 K^–1). Importantly, this value substantially exceeds the thermal expansivity coefficient of the bulk buffer (α0 = 26.9 ± 1.3 × 10^–5 K^–1), clearly confirming that water organization changes with temperature more near the solute surface than in the bulk.

[2] = design: method as in PMID 32162783; conditions: HPLC-derived hydrophobicity; cited from earlier work
[3] = design: method as in doi:10.1016/j.molliq.2019.111527; conditions: calculated water–octanol partition coefficient; cited from earlier work
hCK2α [4] = target: T1, hCK2α (Homo sapiens, UniProt P68400); design: method as in PMID 25891901; conditions: cited from earlier work
T1 construct: made in house
T1 sequence (P68400 whole entry): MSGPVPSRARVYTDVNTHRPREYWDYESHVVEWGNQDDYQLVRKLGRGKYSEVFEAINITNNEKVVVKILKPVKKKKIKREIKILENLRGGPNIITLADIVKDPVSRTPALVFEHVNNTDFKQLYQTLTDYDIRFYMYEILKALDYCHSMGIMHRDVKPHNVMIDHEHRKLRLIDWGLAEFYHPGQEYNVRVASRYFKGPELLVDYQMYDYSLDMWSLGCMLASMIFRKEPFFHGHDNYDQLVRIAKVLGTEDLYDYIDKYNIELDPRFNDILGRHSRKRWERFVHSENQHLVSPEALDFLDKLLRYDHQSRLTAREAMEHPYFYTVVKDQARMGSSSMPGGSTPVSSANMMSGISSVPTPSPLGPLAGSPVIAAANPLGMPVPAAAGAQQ

hCK2α [5] = target: T1, hCK2α; assay: Isothermal titration calorimetry (MicroCal iTC200), reverse titration; type: binding; conditions: for ΔGbind, free energy of binding: ITC; for ΔSrt, entropic term for loss of ligand rotational and translational degrees of freedom: calculated from ligand molecular mass; for Ts, temperature at which the entropy change upon ligand binding is zero: estimated from the linear fit of ΔS(T); for ΔSHE(Ts), hydrophobic-effect contribution to the entropy change upon binding: ≈ 1.35∙ΔCp,bind∙ln(Ts/386)
Protocol: ITC measurements were carried out using the MicroCal iTC200 (Malvern) calorimeter. The hCK2α samples were diluted to the required protein concentration with the 25 mM Tris-HCl pH 8 buffer containing 0.5 M NaCl. Stock ligand solutions were diluted with the appropriate DMSO volume prior to mixing with the buffer to obtain the required ligand concentration and a final DMSO content of 1%. Due to the limited solubility of halogenated benzotriazoles, all titration experiments were performed in the reverse mode, in which buffered ligand solution was placed in the calorimetric cell and titrated with the protein solution.[35]
(§1) In all experiments the maximum ligand concentration of 10 μM was used to minimize a possible contribution of the secondary binding site.

hCK2α [6] = target: T1, hCK2α; assay: Fluorescence-monitored thermal denaturation (nanoDSF) of hCK2α complexes; type: binding; conditions: protein 2.5 μM, ligand 25 μM; for Tm (°C) at pH 7.5: hCK2α in complex with ligand; for ΔTm (°C) at pH 7.5: unfolding temperature with ligand minus without
Protocol: The samples were loaded into nanoDSF grade Standard Capillaries (NanoTemper Technologies) and analyzed using the Prometheus NT.48 nanoDSF device (NanoTemper Technologies). Thermal unfolding of the protein was monitored using a linear thermal ramp (1 °C·min^–1; 20–80 °C) with an excitation power of 30%.
This prompted us to measure the thermal stabilities of hCK2α and its complexes at pH 7.5 by fluorescence-monitored thermal denaturation (nanoDSF) (Table 2).

hCK2α [7] = target: T1, hCK2α; design: method as in PMID 23155426; conditions: pH 7.5; cited from earlier work
hCK2α [8] = target: T1, hCK2α; assay: Isothermal titration calorimetry (NanoITC); type: binding; conditions: pH 8
Protocol: as §1

[9] = iTC200, 15 °C, pH 8, independent experiments separately evaluated
[10] = iTC200, 20 °C, pH 8, independent experiments separately evaluated
[11] = iTC200, 25 °C, pH 8, independent experiments separately evaluated
[12] = iTC200, 30 °C, pH 8, independent experiments separately evaluated
[13] = iTC200, 35 °C, pH 8, independent experiments separately evaluated

| Compound | α2^0, thermal volumetric expansivity of the solute [1] [cm^3·mol^–1·K^–1] | V2^0, partial molar volume [1] [cm^3·mol^–1] | log(τ) [2] | log P [3] | ΔTm (°C) at pH 8 (hCK2α [4]) [°C] | ΔGbind, free energy of binding (hCK2α [5]; 25 °C, pH 8) | ΔSrt, entropic term for loss of ligand rotational and translational degrees of freedom (hCK2α [5]) [J∙mol-1∙K-1] | Ts, temperature at which the entropy change upon ligand binding is zero (hCK2α [5]) [K] | Kd (hCK2α [5]; [9]) | Kd (hCK2α [5]; [10]) | Kd (hCK2α [5]; [11]) | Kd (hCK2α [5]; [12]) | Kd (hCK2α [5]; [13]) | ΔSHE(Ts), hydrophobic-effect contribution to the entropy change upon binding (hCK2α [5]) [J∙mol-1∙K-1] | Tm (°C) at pH 7.5 (hCK2α [6]) [°C] | ΔTm (°C) at pH 7.5 (hCK2α [6]) [°C] | IC50 (hCK2α [7]) [µM] | also measured |
| --- | --- | --- | --- | --- | --- | --- | --- | --- | --- | --- | --- | --- | --- | --- | --- | --- | --- | --- |
| Brc1c(Br)c(Br)c2[nH]nnc2c1Br [4,5,6,7-Br4Bt, 4,5,6,7-tetrabromobenzotriazole] | 0.72 ± 0.28 | 194.1 ± 1.1 | –0.00 | 3.58 | – | – | – | – | – | – | – | – | – | – | – | – | – | – |
| Brc1cc2[nH]nnc2c(Br)c1Br [4,5,6-Br3Bt] | 0.49 ± 0.24 | 156.0 ± 1.0 | –0.20 | 2.96 | 8.4 ± 0.1 | –39.5 ± 0.4 kJ·mol^–1 | -301 | 280 ± 36 | 89 nM and 51 nM | 114 nM and 130 nM | 123 nM and 116 nM | 189 nM and 109 nM | 160 nM and 215 nM | 295 ± 30 | 53.84 ± 0.04 | 8.7 ± 0.1 | 0.38 ± 0.02 | Kd (hCK2α [8]; 15 °C): 65 ± 13 nM; ΔG (hCK2α [8]; 15 °C): -9.49 ± 0.12 kcal/mol; ΔH (hCK2α [8]; 15 °C): -6.93 ± 0.14 kcal/mol; ΔS (hCK2α [8]; 15 °C): 37 ± 4 J·mol-1·K-1; Kd (hCK2α [8]; 20 °C): 81 ± 19 nM; ΔG (hCK2α [8]; 20 °C): -9.51 ± 0.14 kcal/mol; ΔH (hCK2α [8]; 20 °C): -7.43 ± 0.22 kcal/mol; ΔS (hCK2α [8]; 20 °C): 30 ± 5 J·mol-1·K-1; Kd (hCK2α [8]; 25 °C): 42 ± 17 nM; ΔG (hCK2α [8]; 25 °C): -10.1 ± 0.239 kcal/mol; ΔH (hCK2α [8]; 25 °C): -9.46 ± 0.311 kcal/mol; ΔS (hCK2α [8]; 25 °C): 9 ± 4 J·mol-1·K-1; Kd (hCK2α [8]; 30 °C): 96 ± 17 nM; ΔG (hCK2α [8]; 30 °C): -9.73 ± 0.12 kcal/mol; ΔH (hCK2α [8]; 30 °C): -11.2 ± 0.287 kcal/mol; ΔS (hCK2α [8]; 30 °C): -21 ± 6 J·mol-1·K-1; Kd (hCK2α [8]; 35 °C): 217 ± 94 nM; ΔG (hCK2α [8]; 35 °C): -9.39 ± 0.263 kcal/mol; ΔH (hCK2α [8]; 35 °C): -13.5 ± 1.46 kcal/mol; ΔS (hCK2α [8]; 35 °C): -56 ± 23 J·mol-1·K-1 |
| Brc1ccc2[nH]nnc2c1Br [4,5-Br2Bt] | 0.36 ± 0.21 | 151.7 ± 0.9 | –0.39 | 2.34 | 3.5 ± 0.1 | –34.9 ± 0.4 kJ·mol^–1 | -291 | 299 ± 37 | 260 nM and 470 nM | 610 nM and 540 nM | 770 nM and 670 nM | 880 nM and 1430 nM | 1440 nM and 1160 nM | 148 ± 17 | 49.55 ± 0.05 | 4.4 ± 0.1 | 10.6 ± 0.9 | ΔS (hCK2α [5]; [9]): 21 ± 6 J·mol-1·K-1 and 22 ± 6 J·mol-1·K-1; ΔH (hCK2α [5]; [10]): -7.89 ± 0.359 kcal/mol and -7.89 ± 0.884 kcal/mol; ΔS (hCK2α [5]; [10]): 8 ± 6 J·mol-1·K-1 and 7 ± 15 J·mol-1·K-1; ΔSother, entropy change assigned to all other processes accompanying ligand binding (hCK2α [5]; ΔSrt + ΔSHE(Ts) + ΔSother = 0): 143 ± 17 J∙mol-1∙K-1 |

From publication PMC8041304, “Halogen Atoms in the Protein–Ligand System. Structural and Thermodynamic Studies of the Binding of Bromobenzotriazoles by the Catalytic Subunit of Human Protein Kinase CK2” (The Journal of Physical Chemistry. B, 2021)
